Experimental data: patent US5070210A, “Novel ketenimines as intermediates for insecticides” (ICI Americas Inc., priority 1990, dated 1991)

Legend:
Type in all cases: in vivo
[1] = tested on: Cabbage Looper [Trichoplusia ni (Hubner)]; assay: Cabbage looper insecticidal test; conditions: second-instar larvae, percent in solution; 3-5 days
How it was run: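 Steps: dilute compound in 50-50 acetone-water from 0.1% downward; immerse cotyledon pieces 2-3 s and dry; place in humid petri dishes with five second-instar larvae; record mortality at 3-5 days. Dosage-mortality curves yield LC50 as percent in solution.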

[2] = tested on: Tobacco Budworm [Heliothis virescens (Fabricius)] eggs; assay: Tobacco budworm egg test; conditions: 2-day old eggs, percent in solution
How it was run: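 Mortality of dipped eggs served as read-out, recorded after untreated controls hatched and began feeding. Treatments used acetone solutions from 0.1% downward, with eggs incubated at 78° F; LC50 is expressed as percent of compound in the solution.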

[3] = tested on: Maize weevil [Sitophilus Zeamais (Motschulsky)]; assay: Maize weevil insecticidal test; conditions: adult weevils, percent in solution; 48 hours
How it was run: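 LC50, in percent of compound in solution, was derived from dosage-mortality curves after 48 h at about 25 °C. Ten adult weevils per container fed on four corn seeds briefly immersed in acetone:water (50:50) solutions of up to 0.01% and dried.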

[4] = tested on: Aster Leafhopper [Macrosteles fascifrens (Stal)]; assay: Aster leafhopper insecticidal test; conditions: adults/nymphs, percent in solution; 48 hours
Procedure: The compounds in Tables 1 and 2 above were tested for insecticidal activity using the following testing procedures. LC50 values, based on the results of these tests and calculated according to dosage-mortality curves, are expressed in Table 3.
Aster Leafhopper [Macrosteles fascifrens (Stal)]
Oat seedlings (Avena sp) were grown in a commercial potting soil in cups. When the plants were approximately 10 cm tall they were thinned to three plants per cup and dipped for 2-3 seconds in 50-50 acetone-water solutions of the test compounds. When the plants had dried, a clear plastic tube was placed over them and the bottom end pressed into the cup. Ten aster leafhopper adults/nymphs were then placed in each tube and the tops of the tubes covered with white organdy cloth. Mortality counts were made after 48 hours. Test concentrations ranged from 0.05% down to that at which 50% mortality occurred. The LC50 values are expressed below in Table 3 under the heading "LH" in terms of the percent of the test compound in the solution.

[5] = tested on: Housefly [Musca domestica]; assay: Housefly insecticidal test; conditions: μg per 25 female flies; mortality after 48 hours
How it was run: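 Residual contact test: acetone dilution, 0.01% peanut oil spreader, solvent evaporated; 25 ♀ flies (1-2 d old) per cage; sugar-water plug; 48 h mortality read. LC50 in μg/25 female flies, from dose-mortality curves; top dose 100 μg/25 flies.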

Fc1ccc(N=C(OCc2cccc(Oc3ccccc3)c2)C(F)(F)C(F)(F)F)cc1Cl [Compound 117]
LC50, CL [1]: 0.006% | LC50, TBW, E (TBW-E) [2]: > 0.1% | LC50, MW [3]: > 0.01% | LC50, LH [4]: 0.0003% | LC50, HF [5]: 55 µg

CC(C)C(=Nc1ccc(F)c(Cl)c1)OCc1cccc(Oc2ccccc2F)c1 [Compound 119]
LC50, CL [1]: 0.0007% | LC50, TBW, E (TBW-E) [2]: 0.048% | LC50, MW [3]: > 0.01% | LC50, LH [4]: 0.0008% | LC50, HF [5]: 27 µg

CC1(C)C(C(=Nc2ccc(F)c(Cl)c2)OCc2cccc(Oc3ccccc3)c2)C1(C)C [Compound 124]
LC50, CL [1]: 0.01% | LC50, TBW, E (TBW-E) [2]: > 0.1% | LC50, MW [3]: > 0.01% | LC50, LH [4]: > 0.05% | LC50, HF [5]: 17 µg

CC(C)C(=Nc1cccc(Br)c1)OCc1cccc(Oc2ccccc2)c1 [Compound 128]
LC50, CL [1]: 0.005% | LC50, TBW, E (TBW-E) [2]: 0.037% | LC50, MW [3]: > 0.01% | LC50, LH [4]: 0.003% | LC50, HF [5]: 4.5 µg

CC(C)C(=Nc1ccccc1Br)OCc1cccc(Oc2ccccc2)c1 [Compound 132]
LC50, CL [1]: 0.025% | LC50, TBW, E (TBW-E) [2]: > 0.1% | LC50, MW [3]: > 0.01% | LC50, LH [4]: > 0.05% | LC50, HF [5]: 65 µg

CSc1ccc(N=C(OCc2cccc(Oc3ccccc3)c2)C(C)C)cc1 [Compound 142]
LC50, CL [1]: 0.005% | LC50, TBW, E (TBW-E) [2]: 0.1% | LC50, MW [3]: > 0.01% | LC50, LH [4]: > 0.05% | LC50, HF [5]: 15 µg

COc1cccc(N=C(OCc2cccc(Oc3ccccc3)c2)C(C)C)c1 [Compound 143]
LC50, CL [1]: 0.002% | LC50, TBW, E (TBW-E) [2]: < 0.1% | LC50, MW [3]: > 0.01% | LC50, LH [4]: 0.006% | LC50, HF [5]: 10 µg

COC(=O)c1ccc(N=C(OCc2cccc(Oc3ccccc3)c2)C(C)C)cc1 [Compound 151]
LC50, CL [1]: 0.009% | LC50, TBW, E (TBW-E) [2]: > 0.1% | LC50, MW [3]: > 0.01% | LC50, LH [4]: > 0.05% | LC50, HF [5]: 38 µg

CC(C)C(=Nc1ccc(C(C)(C)C)cc1)OCc1cccc(Oc2ccccc2)c1 [Compound 153]
LC50, CL [1]: 0.004% | LC50, TBW, E (TBW-E) [2]: 0.1% | LC50, MW [3]: > 0.01% | LC50, LH [4]: 0.0005% | LC50, HF [5]: > 100 µg

Cc1cccc(N=C(OCc2cccc(Oc3ccccc3)c2)C(C)C)c1 [Compound 155]
LC50, CL [1]: 0.004% | LC50, TBW, E (TBW-E) [2]: 0.06% | LC50, MW [3]: > 0.01% | LC50, LH [4]: > 0.05% | LC50, HF [5]: 9 µg

Cc1ccc(N=C(OCc2cccc(Oc3ccccc3)c2)C(C)C)cc1 [Compound 156]
LC50, CL [1]: 0.004% | LC50, TBW, E (TBW-E) [2]: 0.05% | LC50, MW [3]: > 0.01% | LC50, LH [4]: > 0.05% | LC50, HF [5]: 10 µg

COc1ccc(N=C(OCc2cccc(Oc3ccccc3)c2)C(C)C)cc1 [Compound 160]
LC50, CL [1]: 0.005% | LC50, TBW, E (TBW-E) [2]: 0.09% | LC50, MW [3]: > 0.01% | LC50, LH [4]: 0.05% | LC50, HF [5]: 7 µg

CC(C)C(=Nc1ccc(C#N)cc1)OCc1cccc(Oc2ccccc2)c1 [Compound 172]
LC50, CL [1]: 0.002% | LC50, TBW, E (TBW-E) [2]: 0.04% | LC50, MW [3]: > 0.01% | LC50, LH [4]: > 0.05% | LC50, HF [5]: 5 µg

c1ccc(Oc2cccc(COC(=Nc3ccc4c(c3)OCO4)C3CC3)c2)cc1 [Compound 177]
LC50, CL [1]: 0.002% | LC50, TBW, E (TBW-E) [2]: > 0.1% | LC50, MW [3]: 0.01% | LC50, LH [4]: > 0.05% | LC50, HF [5]: 13 µg

CCC(=Nc1ccc2c(c1)OCO2)OCc1cccc(Oc2ccccc2)c1 [Compound 178]
LC50, CL [1]: 0.004% | LC50, TBW, E (TBW-E) [2]: > 0.1% | LC50, MW [3]: > 0.01% | LC50, LH [4]: > 0.05% | LC50, HF [5]: 6 µg

CC(C)C(=Nc1ccc2c(c1)OCCO2)OCc1cccc(Oc2ccccc2)c1 [Compound 179]
LC50, CL [1]: 0.004% | LC50, TBW, E (TBW-E) [2]: > 0.1% | LC50, MW [3]: > 0.01% | LC50, LH [4]: 0.005% | LC50, HF [5]: 13 µg

CC(C)C(=Nc1ccc(-c2ccccc2)cc1)OCc1cccc(Oc2ccccc2)c1 [Compound 186]
LC50, CL [1]: 0.008% | LC50, TBW, E (TBW-E) [2]: > 0.1% | LC50, MW [3]: > 0.01% | LC50, LH [4]: > 0.05% | LC50, HF [5]: > 100 µg

CC(C)C(=Nc1ccc(Cl)cc1)OCc1cccc(Oc2ccc(F)cc2)c1 [Compound 189]
LC50, CL [1]: 0.00027% | LC50, TBW, E (TBW-E) [2]: 0.07% | LC50, MW [3]: > 0.01% | LC50, LH [4]: 0.002% | LC50, HF [5]: 17 µg

CC(C)C(=Nc1ccc(Cl)c(C(F)(F)F)c1)OCc1cccc(Oc2ccc(F)cc2)c1 [Compound 193]
LC50, CL [1]: 0.00075% | LC50, TBW, E (TBW-E) [2]: > 0.1% | LC50, MW [3]: > 0.01% | LC50, LH [4]: 0.001% | LC50, HF [5]: 100 µg

CC(C)C(=Nc1ccc(F)c(Cl)c1)OCc1cccc(Oc2ccc(F)c(F)c2)c1 [Compound 217]
LC50, CL [1]: 0.00006% | LC50, TBW, E (TBW-E) [2]: 0.015% | LC50, MW [3]: 0.0084% | LC50, LH [4]: > 0.05% | LC50, HF [5]: 8 µg

CC(C)C(=Nc1ccc2c(c1)OCO2)OCc1cccc(Oc2ccc(Cl)cc2)c1 [Compound 240]
LC50, CL [1]: 0.0003% | LC50, TBW, E (TBW-E) [2]: 0.04% | LC50, MW [3]: > 0.01% | LC50, LH [4]: > 0.05% | LC50, HF [5]: 14 µg

CC(C)C(=Nc1cccc(I)c1)OCc1cccc(Oc2ccc(F)cc2)c1 [Compound 255]
LC50, CL [1]: 0.00017% | LC50, TBW, E (TBW-E) [2]: 0.075% | LC50, MW [3]: > 0.01% | LC50, LH [4]: 0.0005% | LC50, HF [5]: 16 µg

CSc1ccc(Oc2cccc(COC(=Nc3ccc(F)c(Cl)c3)C(C)C)c2)cc1 [Compound 256]
LC50, CL [1]: 0.007% | LC50, TBW, E (TBW-E) [2]: 0.1% | LC50, MW [3]: > 0.01% | LC50, LH [4]: > 0.05% | LC50, HF [5]: > 100 µg

CC(C)C(=Nc1ccc(F)cc1)OCc1cccc(Oc2ccc(Br)cc2)c1 [Compound 259]
LC50, CL [1]: 0.0003% | LC50, TBW, E (TBW-E) [2]: 0.05% | LC50, MW [3]: > 0.01% | LC50, LH [4]: > 0.05% | LC50, HF [5]: 15 µg

CC(C)C(=Nc1cccc([N+](=O)[O-])c1)OCc1cccc(Oc2ccc(Cl)cc2)c1 [Compound 271]
LC50, CL [1]: 0.0004% | LC50, TBW, E (TBW-E) [2]: 0.1% | LC50, MW [3]: > 0.01% | LC50, LH [4]: > 0.05% | LC50, HF [5]: 27 µg

CC(C)C(=Nc1ccc(F)c([N+](=O)[O-])c1)OCc1cccc(Oc2ccccc2)c1 [Compound 293]
LC50, CL [1]: 0.0045% | LC50, TBW, E (TBW-E) [2]: > 0.1% | LC50, MW [3]: > 0.01% | LC50, LH [4]: > 0.05% | LC50, HF [5]: 19 µg

CC(C)(F)C(=Nc1ccc(F)c(Cl)c1)OCc1cccc(Oc2ccc(F)cc2F)c1 [Compound 315]
LC50, CL [1]: 0.002% | LC50, TBW, E (TBW-E) [2]: > 0.1% | LC50, MW [3]: > 0.01% | LC50, LH [4]: > 0.05% | LC50, HF [5]: > 100 µg

CC(C)(F)C(=Nc1ccc(F)c(Cl)c1)OCc1cc(Oc2ccc(F)cc2)ccc1F [Compound 316]
LC50, CL [1]: 0.0015% | LC50, TBW, E (TBW-E) [2]: > 0.1% | LC50, MW [3]: > 0.01% | LC50, LH [4]: > 0.05% | LC50, HF [5]: 100 µg
